The text below walks through data of patent publication US10420731B1, “Method of synthesizing lignin-based nanocompositions” (KING SAUD UNIVERSITY, priority 2019, dated 2019).

One data set relates to Caco-2 cells. As to the kind of experiment: MTT cell viability assay. It is filed as cell-based, human. The conditions noted are these: CUR 50 μM and 80 μM, 24 h, MTT (FIG. 9). As for the experimental part:
Differentiated Caco-2 cells (ATCC, Rockville, Md., USA) were maintained in DMEM (4.5 g/L glucose) medium supplemented with 20% FBS (HyClone; Thermo Scientific, Waltham, Mass., USA), 1% non-essential amino acids, 1% L-glutamine, 1% streptomycin (100 μg/ml) and penicillin (100 IU/ml). The growth medium was changed every day in the first two weeks followed by three times a week.
Caco-2 cell line was transferred into 96-well plates, at a density of 5×10^4 cells per well. After cell adhesion, the culture media was removed and the cells were incubated with 250 μL of culture media containing a concentration range from 10 μM to 300 μM of CUR as free, CUR loaded LG NPs and equivalent unloaded LG NPs.
For free CUR, the samples were prepared from a stock solution in DMSO with appropriate dilutions to reach a maximum of 2% (v/v) of DMSO in each well. After a 24 h incubation period, the supernatant was removed and replaced by 100 μL of MTT solution (0.5 mg/ml) at (37 C°, 5% CO2) to allow MTT to be metabolized. […] Optical density was read at a wavelength of 570 nm using a microplate reader (ELX 800, Bio-Tek Instruments, Winooski, Vt., USA).
The induced cytotoxicity was calculated by comparing the optical density (OD) values against control wells. […] All measurements were performed in triplicate and the means±standard deviation (SD) were calculated.
In general terms: Tetrazolium assays rely on reduction of a dye to a coloured formazan, in cell work by metabolically active cells.

In another data set the test system is Caco-2 cell monolayer. To be noted: in-vitro Caco-2 model system, previously known; cited from earlier work.
For data set [1] the following is noted: prior study; cited from earlier work.
The conditions of data set [2]: reported; cited from earlier work.

As for `COc1cc(/C=C/C(=O)CC(=O)/C=C/c2ccc(O)c(OC)c2)ccc1O` [curcumin], the Cell viability entry in the data set on Caco-2 cells is “below 50%”. For the same compound, the Papp (in general, a coefficient for how fast a substance crosses the barrier) in the data set with Caco-2 cell monolayer is below 3.18 ×10⁻⁶ cm/s. For the same compound, in data set [1], the Oral bioavailability is given as 1%. In addition, the log P (commonly the decadic logarithm of the partition coefficient of the neutral form, usually between octanol and water) in data set [2] is 3.7.
